Data from article PMC3034772 (Pharmaceutical research, 2010).
Where “and” joins values, the source holds several entries; their conditions need not be identical. Equal values may be shown once. Read-outs that look alike come from different tables or passages of the source.

Experiments:
[1] = cited from earlier work
[2] = for Pm^7.4: pH 7.4
[3] = mouse, in vivo; cited from earlier work
[4] = mouse, in vivo
[5] = in vivo
[6] = PAMPA; for Pm^7.4: pH 7.4
[7] = Charge class Q, dominant calculated charge state at pH 7.4; format: physicochemical
[8] = In combo PAMPA-BBB model, calculated log Po in situ
[9] = pKa determination, potentiometric; conditions: this work, 25°C, […] KCl (footnote b)
[10] = In situ brain perfusion, individual literature values; conditions: from literature PS
[11] = PAMPA; for Pm^7.4: pH 7.4; remark: listed apart in the source
[12] = physchem
[13] = ref [38], cited from earlier work
[14] = physchem; conditions: pKa
[15] = dominant calculated concentration fraction of the drug in a charge state
[16] = efflux inhibition column: not satbl

SMILES | PS ([1]; in vivo) | log PS ([1]; in vivo) | PS [3] | log PS [3] | log Po^in situ (obs) [4] | log Po^in situ (obs) [5] | Q (charge class) [7, 15] | Q (charge class) [7] | log PABL [11] | log Po [11] | log Ppara [11] | Pm^7.4 [11] | also measured
CC(C)[C@H](NC(=O)[C@H](CCC(=O)O)NC(=O)[C@H](Cc1ccccc1)NC(=O)[C@@H](C)NC(=O)[C@@H](N)Cc1ccc(O)cc1)C(=O)N[C@H](C(=O)NCC(N)=O)C(C)C [Deltorphin II] | 0.3 10^−4 mLg^−1s^−1 | −4.56 | 0.4 10^−4 mLg^−1s^−1 | −4.36 | −6.36 | −6.56 |  |  |  |  |  |  | log Po ([2]; PAMPA): −6.51; Pm^7.4 ([2]; PAMPA): <0.01
CC(C)n1c(/C=C/C(O)CC(O)CC(=O)O)c(-c2ccc(F)cc2)c2ccccc21 (stereo not drawn) [Fluvastatin Acid] |  |  |  |  |  |  | − |  |  |  |  |  | log Po [6]: −3.56; Pm^7.4 [6]: 0.2; obs–calc (log Po^in situ) ([8]; no efflux inhibition): 0.9
NC(Cc1ccc(F)cc1)C(=O)O (stereo not drawn) [p-F-Phenylalanine] |  |  |  |  |  |  |  | ± |  |  |  |  | log Po [6]: −6.13; Pm^7.4 [6]: 0.7
N[C@H](Cc1ccc(F)cc1)C(=O)O [p-F-Phenylalanine(D)] | 14 10^−4 mLg^−1s^−1 | −2.85 |  |  | −4.81 | −4.84 |  |  |  |  |  |  | 
CNCCC(Oc1ccc(C(F)(F)F)cc1)c1ccccc1 (stereo not drawn) [Fluoxetine] |  |  |  |  |  |  |  |  |  |  |  |  | pKa [9]: 9.79
N[C@@H](Cc1ccc(F)cc1)C(=O)O [p-F-Phenylalanine(L)] |  |  | 347 10^−4 mLg^−1s^−1 | −1.46 | −3.45 |  |  |  |  |  |  |  | 
CC(C)(C)c1ccc(C(O)CCCN2CCC(C(O)(c3ccccc3)c3ccccc3)CC2)cc1 (stereo not drawn) [Terfenadine] |  |  |  |  |  |  | + |  | −3.76 | −0.54 | −5.70 |  | log PS ([1]; efflux inhibition CsA): −1.39; obs–calc (log Po^in situ) ([8]; difference observed minus calculated, external set, no efflux inhibition): −0.9; obs–calc (log Po^in situ) ([8]; efflux inhibition CsA): 0.0; log Po^in situ (obs) ([10]; efflux inhibition CsA): −0.92
CC[C@]1(O)C[C@@H]2CN(CCc3c([nH]c4ccccc34)[C@@](C(=O)OC)(c3cc4c(cc3OC)N(C)[C@H]3[C@@](O)(C(=O)OC)[C@H](OC(C)=O)[C@]5(CC)C=CCN6CC[C@]43[C@@H]65)C2)C1 [Vinblastine] | 4 10^−4 mLg^−1s^−1 | −3.37 |  |  |  |  | 0 |  | −3.25 | −4.36 | −5.54 | 32 | PS ([1]; efflux inhibition GF120918): 6 10^−4 mLg^−1s^−1; log PS ([1]; efflux inhibition GF120918): −3.25; obs–calc (log Po^in situ) ([8]; efflux inhibition GF120918): 0.2; obs–calc (log Po^in situ) ([8]; efflux inhibition PSC833): 0.1; obs–calc (log Po^in situ) ([8]; efflux inhibition mdr1a(−/−)): 0.2 and 0.4; log Po^in situ (obs) ([10]; efflux inhibition GF120918): −4.94; log Po^in situ (obs) ([10]; efflux inhibition PSC833): −5.06
CCOC(=O)C1(c2ccccc2)CCN(C)CC1 [Meperidine] | 549 10^−4 mLg^−1s^−1 | −1.26 | 525 10^−4 mLg^−1s^−1 | −1.28 | −2.08 | −2.05 |  | + |  |  |  |  | log Po [6]: −1.68; Pm^7.4 [6]: 1290; obs–calc (log Po^in situ) [8]: −0.5
CCC12CCN(CC3(O)CC3)C(Cc3ccc(O)cc31)C2(C)C (stereo not drawn) [Bremazocine] | 81 10^−4 mLg^−1s^−1 | −2.09 | 129 10^−4 mLg^−1s^−1 | −1.89 | −2.76 | −2.96 |  | + |  |  |  |  | obs–calc (log Po^in situ) [8]: 0.4 and 0.2; log Po ([2]; PAMPA-BBB intrinsic permeability, Type I, collected under 1.5 μL conditions but scaled to the 3 μL level): −2.87; log PABL ([2]; aqueous boundary layer permeability, Type I, 1.5 μL conditions): −3.00
CCCN1C[C@H](C)N([C@H](c2ccc(C(=O)N(CC)CC)cc2)c2cccc(OC)c2)C[C@H]1C [SNC121] |  |  | 363 10^−4 mLg^−1s^−1 | −1.44 | −2.96 |  |  | + |  |  |  |  | log Po ([2]; PAMPA): −2.91; Pm^7.4 ([2]; PAMPA): 201
O=C(O)CCCc1ccc(N(CCCl)CCCl)cc1 [Chlorambucil] | 250 10^−4 mLg^−1s^−1 | −1.60 |  |  |  | −0.80 |  | − | −2.87 | −2.45 | −7.16 | 6 | obs–calc (log Po^in situ) [8]: 0.3; pKa ([9]; second pKa column): 4.28; pKa [9]: 4.6
CN1C[C@H](C(=O)N[C@]2(C)O[C@@]3(O)[C@@H]4CCCN4C(=O)[C@H](Cc4ccccc4)N3C2=O)C=C2c3cccc4[nH]cc(c34)C[C@H]21 [Ergotamine] | 87 10^−4 mLg^−1s^−1 | −2.06 |  |  |  | −3.82 |  | 0 | −3.73 | −2.50 | −6.03 | 1823 | obs–calc (log Po^in situ) [8]: 0.1; pKa [12]: 9.49
CC(C(=O)O)c1ccc(-c2ccccc2)c(F)c1 (stereo not drawn) [Flurbiprofen] | 158 10^−4 mLg^−1s^−1 | −1.80 |  |  |  |  | − |  | −2.84 | −2.35 | −6.99 | 3 | obs–calc (log Po^in situ) [8, 16]: 0.0; log Po^in situ (obs) [10, 16]: −0.58; pKa [13]: 4.18
Oc1ccc2c3c1O[C@H]1c4[nH]c5ccccc5c4C[C@@]4(O)[C@@H](C2)N(CC2CC2)CC[C@]314 [Naltrindole] |  |  | 104 10^−4 mLg^−1s^−1 | −1.98 | −3.03 |  |  | + |  | −2.23 | −6.20 | 659 | 
CCC(=O)C(CC(C)N(C)C)(c1ccccc1)c1ccccc1 (stereo not drawn) [Methadone] |  |  |  |  |  |  |  |  |  |  |  |  | log Po [6]: −2.18
N[C@@H](Cc1ccc(N(CCCl)CCCl)cc1)C(=O)O [Melphalan] | 5 10^−4 mLg^−1s^−1 | −3.28 |  |  |  | −5.27 |  | ± | −4.65 | −7.51 | −7.71 | 0.03 | obs–calc (log Po^in situ) [8]: 0.0
OCCOCCN1CCN(C(c2ccccc2)c2ccc(Cl)cc2)CC1 (stereo not drawn) [Hydroxyzine] |  |  |  |  |  |  | 0 |  | −3.26 | −3.72 | −8 | 82 | PS ([1]; efflux inhibition CsA): 393 10^−4 mLg^−1s^−1; log PS ([1]; efflux inhibition CsA): −1.41; obs–calc (log Po^in situ) ([8]; efflux inhibition CsA): 0.6; obs–calc (log Po^in situ) ([8]; no efflux inhibition): 0.7; log Po^in situ (obs) ([10]; efflux inhibition CsA): −3.04; pKa [13]: 7.52; pKa ([13]; second pKa column): 2.66
CN(C)C(=O)C(CCN1CCC(O)(c2ccc(Cl)cc2)CC1)(c1ccccc1)c1ccccc1 [Loperamide] |  |  |  |  | −2.52 |  |  | + | −3.19 | −2.67 | −12 | 102 | 
O=C1C[C@@H](c2ccc(O)cc2)Oc2cc(O)cc(O)c21 [Naringenin] | 105 10^−4 mLg^−1s^−1 | −1.98 |  |  |  |  | 0 |  | −4.00 | −3.94 | −6.93 | 33 | obs–calc (log Po^in situ) ([8]; efflux inhibition PSC833): 0.0; log Po^in situ (obs) ([10]; efflux inhibition PSC833): −3.96; pKa [14]: 10.4
